The record followed here is a melting point compilation (Tetko et al.; mined from patent text by program, amines drawn as free bases though some values may be those of a salt).

For the compound `O=C(O)Cc1nn(Cc2nc3cc(C(F)(F)F)ccc3s2)c(=O)c2nccnc12`, the melting point was in the range of 192 to 193 °C.

As for `CCC(=O)C1=CCC(c2c(C)c(C)c3c(c2Cl)CC(C)(CC)C3)CC1=O` (stereo not drawn), the melting point fell in the range of 55 to 57 °C.

Compound `CC(C)N1C(=O)c2cncnc2Nc2ccccc21` registered a melting point of 204 to 206 °C. Regarding `O=[N+]([O-])c1oc2cc(NS(=O)(=O)C(F)(F)F)ccc2c1-c1ccccc1`, the melting point was in the range of 114 to 120 °C. Next, `CCOc1ccc(OCC(=O)OC(C)(C)C)c2c1C(=O)N(CSc1nnnn1-c1ccccc1)S2(=O)=O`: 110 to 112 °C. Take `FC(F)Oc1cnnc(-c2cccc(C(F)(F)F)c2)c1`: the melting point fell in the range of 70 to 72 °C. Next, `O=C(O)c1ccc(NCc2cccc(Cl)c2)cn1`: 170 to 174 °C; `CN1C2CCCC1CC(NC(=O)c1cccc3oc(-c4ccccc4)nc13)C2` (stereo not drawn): 182 to 185 °C; `O=C(Nc1ccc(CCN2C(=O)C3CCCC3=Nc3ccccc32)cc1)OCc1ccccc1` (stereo not drawn): 103 to 105 °C. For the compound `O=C1CC[C@H]2CC3(C=C[C@@H]2C1)OCCO3` (relative stereo), the melting point fell in the range of 58 to 59 °C. Next, `CS(=O)(=O)c1ccc(-n2nc(C(F)(F)F)cc2-c2ccc(-c3ncco3)cc2)cc1F`: 140 to 142 °C; `O=C(O)CC1(c2ccccc2)CCCCC1=O` (stereo not drawn): 130 to 132 °C; `S=C1Nc2ccc(Cl)cc2CS1`: 217 to 222 °C.

With `C#CC1(O)CCC2C3CCC4=CC(=O)C=CC4(C)C3CCC21C` (stereo not drawn), the melting point lay within 218 to 219 °C. Next, `NC(=O)c1cn(C(CO)COc2ccccc2)cn1` (stereo not drawn): 148 to 150 °C.

Compound `Brc1ccc(CSc2nc(-c3ccncc3)ns2)cc1` returned a melting point of 132 °C.

Consider `O=C(OC(Cn1ccnc1)c1ccc2ccccc2c1)c1ccccc1` (stereo not drawn), for which the melting point was in the range of 219 to 220 °C. In turn, `CC1=C(c2ccccc2)C(=O)N(C(C)(C)C(=O)Nc2cccc(Cl)c2)CO1` gave a melting point of 114 °C. Next, `NC[C@@H]1C(=O)N[C@H]1SC(c1ccccc1)(c1ccccc1)c1ccccc1` (relative stereo): 139 °C. Take `CCOC(=O)c1nn(-c2ccc(OC)cc2)c2c1CCN(c1ccc(I)cc1)C2=O`: the melting point lay in the range of 173 to 175 °C. Next, `CC(F)(C(N)=O)c1ccc(OS(=O)(=O)C(F)(F)F)cc1` (stereo not drawn): 75 to 78 °C; `Nc1ccc(CCNCCCCCCNCCc2ccc(O)c(O)c2)cc1`: above 250 °C. Next, `Cc1cc([N+](=O)[O-])cc(C)c1Oc1ccc(O)c(Cc2ccc(F)cc2)c1`: 127 to 132 °C; `C=CCn1ncc2cc3ncc(-c4ccc(OC)c(F)c4)nc3cc21`: 121 to 124 °C; `COc1ccc(N2C(=O)O[C@H](COc3ccc(C#N)cc3)[C@@H]2C)cc1`: 127 to 128 °C. Next, `COc1ccc2c(c1OC)CCC=C2C#N`: 139 to 140 °C; `CC(C)C(NC(=O)NCc1cccnc1)C(=O)NC(Cc1ccccc1)C(O)C(Cc1ccccc1)NC(=O)C(NC(=O)NCc1cccnc1)C(C)C` (stereo not drawn): 238 to 239 °C; `Cc1oc(-c2ccccc2)nc1CNC(=O)c1ccc(Cn2cc(CCC(=O)O)c(-c3ccccc3)n2)cc1`: 177 to 178 °C. Turning to `Cc1ccc(-c2ncc(OC3SCC(O)C(O)C3O)cc2F)cn1` (stereo not drawn), the melting point worked out at 184 °C.

`COc1ccccc1C1(Cl)C(=O)Nc2cc(C(F)(F)F)c(Cl)cc21` (stereo not drawn) showed a melting point of 230 to 231 °C. Next, `O=C(NCCO)c1cccc(-c2ncc3ccn(Cc4ccc(Cl)cc4Cl)c3n2)c1`: 194 to 195 °C; `COC(=O)SC1C2=C(CCCC2)C(=O)N1c1ccc(Cl)cc1F` (stereo not drawn): 80 to 81 °C. Next, `CCc1cc(C(C)C)c(-c2ccc(O)cc2)cc1C`: 106 to 108 °C; `CNC(=O)c1cc(-c2c[nH]nc2-c2ccc(F)cc2)ccn1`: 88 to 89 °C; `COc1cccc(-c2noc3cc(F)ccc23)c1`: 68 to 69 °C. The compound `Nc1nc(C2CCCCN2)ncc1-c1ccc(Cl)cc1Cl` (stereo not drawn) gave a melting point of 169 °C. Next, `O=C1CCCC2=C1C(c1ccc(F)c(I)c1)C1=C(CCS1)N2` (stereo not drawn): above 250 °C; `O=C(Nc1ccc2c(c1)CN(C(=O)OCc1ccccc1)CC2)OCc1ccccc1`: 113 to 115 °C; `COC(=O)Cn1c(C)cc(Cc2ccsc2)c(NC(=O)OCc2ccccc2)c1=O`: 127 to 128 °C.

`O=C1NC(=O)N2Cc3ccccc3CC12` (stereo not drawn) came in with a melting point of 225 to 231 °C. The result for `C1CCN(CCN2CCNCC2)CC1` reads 60 to 62 °C. Next, `C=CCC1C(=O)N(Cc2ccccc2)c2ccccc2N(C(=O)CN2C(=O)c3ccccc3C2=O)C1C` (stereo not drawn): 218 to 219 °C.

In turn, `CC1(CO)Cc2ccccc2C1(C)C` (stereo not drawn) gave a melting point of 48 to 50 °C.

In turn, `O=C1NCC(C(F)(F)C(F)(F)C(F)(F)F)C(=O)N1` (stereo not drawn) displayed a melting point of 223 °C. Next, `CC#CCOc1ccc(S(=O)(=O)C(CCCCCC#N)C(=O)OCC)cc1` (stereo not drawn): 63 °C; `O=C1NC2(CCC(F)(F)CC2)C(O)=C1c1cc(-c2ccc(Cl)cc2)ccc1Cl`: 156 °C. Next, `COc1cc(OC)cc(C(=O)NNC(=O)Nc2cccc3c2C(=O)c2c-3n[nH]c2-c2ccc(N3CCNCC3)cc2)c1`: above 300 °C; `NC(=O)c1ccc(OC2CCN(c3ccncc3)C2)cc1` (stereo not drawn): 298 to 300 °C. Next, `Cc1ccc(-c2coc(C=CC(=O)NC3CCC(CN(C)C4CCOCC4)CC3)c2)cc1` (stereo not drawn): 165 to 167 °C.

`CC(c1ccccc1)c1ccc(-c2cnn3c(O)ncnc23)cc1` (stereo not drawn) returned a melting point of 291 to 293 °C. For the compound `Nc1cc(Cl)c(Sc2ccc(C(F)(F)F)cc2Cl)cc1F`, the melting point is 80.8 °C. The result for `N#Cc1cnn2c(C(F)(F)F)cc(-c3ccncc3)nc12` reads 233 °C. The result for `Cc1nc(N2CCN(Cc3ccccc3)C2=O)sc1C(=O)NCc1ccncc1` reads 96 to 97 °C; that for `Cn1c2ccc(F)cc2c(=O)n2nc(C#N)cc12`, 331 to 340 °C; that for `CC(C)(C)c1cc(C(c2ccccc2)N(O)C(N)=O)cc(C(C)(C)C)c1O` (stereo not drawn), 188 to 189 °C. In turn, `CC(C)(C(=O)c1ccc(C(=O)c2ccc(C(=O)C(C)(C)N3CCOCC3)cc2)cc1)N1CCOCC1` had a melting point of 145 to 147 °C. Consider `Cn1cnc2ccc(-c3nnc(SCc4cccc(C(F)(F)F)c4)o3)cc21`, for which the melting point is 126 to 127 °C. Next, `CCCC(=O)Nc1c(C)c2c(c(C(C)c3ccc(C(C)C)cc3)c1C)OCC2` (stereo not drawn): 152 to 153 °C; `OC(CNCC1CCCO1)c1ccccc1` (stereo not drawn): 70 to 72 °C; `CCc1ccc(N2CCOCC2)c(NC(C)=O)c1`: 82 °C. The result for `CC(C)(N)Cc1c[nH]c2ccccc12` reads 72 to 74 °C.

Regarding `CON=C(C1=C(O)C(=O)N(c2ncc(S(=O)(=O)c3ccc([N+](=O)[O-])cc3)s2)C1c1ccc(C(C)C)cc1)c1ccc(C)cc1` (stereo not drawn), the melting point was found to be 156 °C. Next, `Cc1oc(C=Cc2cccc(Cl)c2)nc1CCl`: 86 to 87 °C. Next, `CCOc1ccc2c(c1)C(Cl)Cc1ccc(F)cc1S2` (stereo not drawn): 110 to 111 °C.

`Cc1ccc(C(=O)Nc2ccc(N3CCN(Cc4cccc(C#N)c4)CC3)cc2)c(-c2ccc(C(C)C)cc2)c1` returned a melting point of 167 to 169 °C. The result for `COc1cc(-c2ccc(C(=N)NO)cc2)cc(-c2nc3cc(C(=N)NO)ccc3[nH]2)c1O` reads 319 to 321 °C; that for `COc1ccc(C(=C/C=C/C(=O)NC(C)(C)CCCc2cccnc2)c2ccc(OC)cc2)cc1`, 144 to 145 °C; that for `CCOC(=O)NS(=O)(=O)c1ccc2c(c1)C(=O)CO2`, 118 to 119 °C. Next, `O=[N+]([O-])c1ccc(Oc2cccc(Oc3ccc([N+](=O)[O-])c(O)c3)c2)cc1O`: 180 to 182 °C; `CCC1(CCCN2CCc3sccc3C2)C(=O)Nc2ccc(Cl)cc21` (stereo not drawn): 66 to 69 °C; `NC(=O)c1cn(C(CO)c2ccccc2)cn1` (stereo not drawn): 147 to 149 °C. The result for `CCCCCc1cnc(-c2ccc(SC)cc2)nc1` reads 52 °C; that for `CCN1C(=O)CNCc2cc(OC)c(N)cc21`, 69 to 73 °C. The compound `CNC(=O)C1CCc2ccccc21` (stereo not drawn) yielded a melting point of 107 to 109 °C. The result for `N#Cc1cnc2sc(-c3ccccc3)cc2c1NCc1ccc2[nH]ccc2c1` reads 219 to 221 °C; that for `O=S1(=O)NCNc2ccc(F)cc21`, 159 to 165 °C; that for `CC(C)C(=O)OCC(COC(=O)C(C)C)OCn1cnc2c(=O)[nH]c(N)nc21`, 193 to 198 °C. The result for `CCN(CC)C(=O)CCc1c[nH]c2ccc(Br)cc12` reads 128 °C. The result for `CC(=O)c1ccc2c(c1)C(c1ccccc1F)=NC(C)(C)C(=O)N2` reads 59 °C; that for `CCOC(=O)c1c(N)nc(-c2ccc([N+](=O)[O-])cc2)c([N+](=O)[O-])c1C(=O)OCC`, 148 to 150 °C. `Cc1oc(-c2ccccc2)nc1COc1cccc(CON)c1`: the melting point lay in the range of 81 to 82 °C. Next, `COC(=O)c1cccc(-c2ccccc2OC)c1`: 92 to 93 °C; `CCCCCCCCCCCCCCCCCCCCCCC(COC(C)=O)(COC(C)=O)NC(C)=O`: 94 to 95 °C; `CC(C)(C)OC(=O)N1CCC(c2nc3cc(-c4ccc(C#N)c(F)c4)ccc3o2)CC1`: 138 to 142 °C. Compound `NCCCc1nc2c([nH]1)-c1ccccc1N(C(=O)c1ccc(NC(=O)c3ccccc3-c3ccccc3)cc1)CC2` yielded a melting point of 220 to 223 °C.

In the case of `CCOc1nc(-c2ccc(Cl)cc2)c(CCC(=O)O)o1`, the melting point was in the range of 148 to 149 °C.

`COc1nc(OC)c(C(C)C)c(C(=O)c2cc(C)cc(C(OC)OC)c2)n1` registered a melting point of 86 to 88 °C.

As to `O=C1N(CC2CCCCO2)c2ccccc2C12COc1cc3c(cc12)OCCO3` (stereo not drawn), the melting point was 158 to 166 °C.
